Literature values as cited in patent US12551454B2, “Isoproterenol compositions and methods” (Endo Operations Limited, priority 2020, dated 2026).

Conditions: more potent than its (S)-enantiomer

SMILES: CC(C)NC[C@H](O)c1ccc(O)c(O)c1 (single isomer, unassigned) [(R)-enantiomer of Isoproterenol]
- potency relative to (S)-enantiomer: ~90 times
